# Results as given in patent publication US20250049817A1, “JAK INHIBITOR WITH A VITAMIN D ANALOG FOR TREATMENT OF SKIN DISEASES” (INCYTE CORPORATION, priority 2020, published 2025).
# pIC50: −log10 of the molar value.
# What was measured:
# [1] = test system: human JAK1 (a.a. 837-1142); assay: In vitro JAK kinase assay (HTRF), JAK1; assay type: biochemical; conditions: JAK2/JAK1 IC50 ratio, 1 mM ATP
# [2] = target: human JAK1 (a.a. 837-1142) (Homo sapiens, UniProt P23458); assay: In vitro JAK kinase assay (HTRF), JAK1; assay type: biochemical; conditions: 1 mM ATP
# [3] = test system: keratinocyte cell line; conditions: concentration-dependent; read-out: IC50 for decreasing keratinocyte cell line proliferation; cited from earlier work
# [4] = test system: T cells in psoriasis lesions; conditions: psoriasis patients, topical treatment, skin biopsies; cited from earlier work
smiles,measurement,setting,value
"N#CCC1(n2cc(-c3ncnc4[nH]ccc34)cn2)CN([C@H]2CC[C@@H](Oc3cc(CN4CC[C@H](O)C4)cc(C(F)(F)F)n3)CC2)C1 [Compound 22, {1-(cis-4-{[4-{[(3S)-3-hydroxypyrrolidin-1-yl]methyl}-6-(trifluoromethyl)pyridin-2-yl]oxy}cyclohexyl)-3-[4-(7H-pyrrolo[2,3-d]pyrimidin-4-yl)-1H-pyrazol-1-yl]azetidin-3-yl}acetonitrile]",JAK2/JAK1,[1],>10
same,pIC50,[2],> 8.00
"C[C@@H](CO)NCc1cc(OC2CCN([C@H]3C[C@](CC#N)(n4cc(-c5ncnc6[nH]ccc56)cn4)C3)CC2)nc(C(F)(F)F)c1 [Compound 23, {trans-3-(4-{[4-({[(1S)-2-hydroxy-1-methylethyl]amino}methyl)-6-(trifluoromethyl)pyridin-2-yl]oxy}piperidin-1-yl)-1-[4-(7H-pyrrolo[2,3-d]pyrimidin-4-yl)-1H-pyrazol-1-yl]cyclobutyl}acetonitrile]",JAK2/JAK1,[1],>10
same,pIC50,[2],> 8.00
"C[C@@H](O)CNCc1cc(OC2CCN([C@H]3C[C@](CC#N)(n4cc(-c5ncnc6[nH]ccc56)cn4)C3)CC2)nc(C(F)(F)F)c1 [Compound 24, {trans-3-(4-{[4-({[(2R)-2-hydroxypropyl]amino}methyl)-6-(trifluoromethyl)pyridin-2-yl]oxy}piperidin-1-yl)-1-[4-(7H-pyrrolo[2,3-d]pyrimidin-4-yl)-1H-pyrazol-1-yl]cyclobutyl]acetonitrile]",JAK2/JAK1,[1],>10
same,pIC50,[2],> 8.00
"C[C@H](O)CNCc1cc(OC2CCN([C@H]3C[C@](CC#N)(n4cc(-c5ncnc6[nH]ccc56)cn4)C3)CC2)nc(C(F)(F)F)c1 [Compound 25, {trans-3-(4-{[4-({[(2S)-2-hydroxypropyl]amino}methyl)-6-(trifluoromethyl)pyridin-2-yl]oxy}piperidin-1-yl)-1-[4-(7H-pyrrolo[2,3-d]pyrimidin-4-yl)-1H-pyrazol-1-yl]cyclobutyl}acetonitrile]",JAK2/JAK1,[1],>10
same,pIC50,[2],> 8.00
"N#CC[C@]1(n2cc(-c3ncnc4[nH]ccc34)cn2)C[C@H](N2CCC(Oc3cc(CCO)cc(C(F)(F)F)n3)CC2)C1 [Compound 26, {trans-3-(4-{[4-(2-hydroxyethyl)-6-(trifluoromethyl)pyridin-2-yl]oxy}piperidin-1-yl)-1-[4-(7H-pyrrolo[2,3-d]pyrimidin-4-yl)-1H-pyrazol-1-yl]cyclobutyl]acetonitrile]",JAK2/JAK1,[1],>10
same,pIC50,[2],> 8.00
C=C1/C(=C\C=C2/CCC[C@]3(C)[C@@H]([C@H](C)/C=C/[C@@H](O)C4CC4)CC[C@@H]23)C[C@@H](O)C[C@@H]1O [calcipotriol],pIC50,[3],7.00 to 8.00
same,CD8(+) IL-17(+) T cells,[4],significant decrease
same,frequency of IL-22(+) or IFN-γ(+) cells in psoriasis lesions,[4],no changes
C=C1/C(=C\C=C2/CCC[C@]3(C)[C@@H]([C@H](C)OCCC(C)(C)O)CC[C@@H]23)C[C@@H](O)C[C@@H]1O [maxacalcitol],pIC50,[3],7.00 to 8.00
C=C1/C(=C\C=C2/CCC[C@]3(C)[C@@H]([C@H](C)CC[C@@H](O)C(C)C)CC[C@@H]23)C[C@@H](O)C[C@@H]1O [tacalcitol],pIC50,[3],7.00 to 8.00
